Assay results reported in ChEMBL document CHEMBL5518172, “Discovery of hydroxamate as a promising scaffold dually inhibiting metallo- and serine-β-lactamases” (Eur J Med Chem, 2024).
The source made the active and inactive calls. The rule behind the calls is not given here.

Assays:
[1] = molecular target: Metallo-beta-lactamase type 2 (Bacteria) (UniProt C7C422); assay: (§1) Destabilization of recombinant NDM-1 (unknown origin) expressed in Escherichia coli BL21 (DE3) cells assessed as thermal stabilization by measuring melting temperature at 50 uM incubated under 25 to 80 degreeC by SYPRO orange dye based thermal shift assay (reference value: 52.6 degreeC)
Chain of Metallo-beta-lactamase type 2 (Bacteria) (C7C422 whole entry): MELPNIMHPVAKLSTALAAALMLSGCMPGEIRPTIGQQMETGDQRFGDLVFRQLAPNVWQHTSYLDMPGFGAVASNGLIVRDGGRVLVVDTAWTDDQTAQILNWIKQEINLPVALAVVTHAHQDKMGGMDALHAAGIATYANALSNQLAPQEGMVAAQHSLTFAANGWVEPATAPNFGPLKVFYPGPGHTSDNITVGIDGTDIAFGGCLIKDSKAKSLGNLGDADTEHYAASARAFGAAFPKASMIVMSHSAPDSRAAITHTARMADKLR

[2] = Inhibition of recombinant metallo-beta-lactamase IMP-1 (unknown origin) expressed in Escherichia coli BL21 (DE3) cells using meropenem as substrate by spectrometric analysis; parameters: species or system Bacteria
[3] = test system: Bacteria; assay: Irreversible inhibition of recombinant serine beta lactamase KPC-2 (unknown origin) expressed in Escherichia coli BL21 (DE3) cells using cefazolin as substrate assessed as reduction in residual activity at 5 uM preincubated for 6 hrs followed by dialysis and measured after 24 hrs
[4] = test system: Escherichia coli; assay: Synergistic antibacterial activity against Escherichia coli BL21 (DE3) harboring serine beta lactamase OXA-48 assessed as decrease in bacterial colony at 128 microg/ml incubated for 12 hrs in presence of meropenem by imaging analysis; assay type: functional, organism-based; conditions: dose 128.0 µg/ml
[5] = test system: Escherichia coli; assay: Synergistic antibacterial activity against Escherichia coli clinical isolate 07 assessed as meropenem MIC at 64 microg/ml measured after 16 hrs by CLSI protocol based broth microdilution method (reference value: 128 microg/ml); assay type: functional; conditions: dose 64 µg/ml
[6] = test system: Escherichia coli; assay: Synergistic antibacterial activity against Escherichia coli BL21 (DE3) harboring NDM-1 assessed as meropenem MIC at 64 microg/ml measured after 16 hrs by CLSI protocol based broth microdilution method (reference value: 256 microg/ml); assay type: functional; conditions: dose 64 µg/ml
[7] = test system: Escherichia coli; assay: Synergistic antibacterial activity against Escherichia coli clinical isolate 06 assessed as fold decrease in meropenem MIC at 64 microg/ml measured after 16 hrs by CLSI protocol based broth microdilution method; assay type: functional; conditions: dose 64 µg/ml
[8] = test system: Escherichia coli; assay: Synergistic antibacterial activity against Escherichia coli clinical isolate 10 assessed as decrease in bacterial colony at 128 microg/ml incubated for 12 hrs in presence of meropenem by imaging analysis; assay type: functional, organism-based; conditions: dose 128.0 µg/ml
[9] = test system: Bacteria; assay: Inhibition of recombinant serine beta lactamase OXA-48 (unknown origin) expressed in Escherichia coli BL21 (DE3) cells using cefazolin as substrate assessed as reduction in residual activity; conditions: dose 0.075-20 µM
[10] = test system: Bacteria; assay: as §1, with “serine beta lactamase KPC-2” for “NDM-1”, “55.4” for “52.6”
[11] = test system: Bacteria; assay: Inhibition of recombinant serine beta lactamase KPC-2 (unknown origin) expressed in Escherichia coli BL21 (DE3) cells using cefazolin as substrate assessed as residual activity at 20 uM relative to control
[12] = molecular target: Metallo-beta-lactamase type 2 (Bacteria) (UniProt C7C422); assay: Inhibition of recombinant NDM-1 (unknown origin) expressed in Escherichia coli BL21 (DE3) cells using meropenem as substrate assessed as reduction in residual activity; conditions: dose 0.075-20 µM
[13] = test system: Escherichia coli; assay: Antibacterial activity against Escherichia coli BL21 (DE3) harboring metallo-beta-lactamase IMP-1 assessed as inhibition of bacterial growth upto 512 microg/ml by microdilution checkerboard assay; assay type: functional, organism-based; conditions: dose <= 512.0 µg/ml
[14] = test system: Escherichia coli; assay: Synergistic antibacterial activity against Escherichia coli clinical isolate 10 assessed as fold decrease in meropenem MIC at 64 microg/ml measured after 16 hrs by CLSI protocol based broth microdilution method; assay type: functional; conditions: dose 64 µg/ml
[15] = test system: Escherichia coli; assay: Synergistic antibacterial activity against Escherichia coli clinical isolate 24 assessed as fold decrease in meropenem MIC at 64 microg/ml measured after 16 hrs by CLSI protocol based broth microdilution method; assay type: functional; conditions: dose 64 µg/ml
[16] = test system: Escherichia coli; assay: Synergistic antibacterial activity against Escherichia coli BL21 (DE3) harboring metallo-beta-lactamase IMP-1 assessed as reduction in meropenem MIC upto 256 microg/ml in presence of meropenem by microdilution checkerboard assay; assay type: functional, organism-based; conditions: dose <= 256.0 µg/ml

SMILES: O=C(CCCc1ccccc1)NOC(=O)OCc1ccccc1
- Tm [1]: 49.8 °C
- IC50 [2]: 1320 nM
- inhibition [3]: Active
- Activity [4]: Active
- MIC [5]: 128 µg/mL
- MIC [6]: 32 µg/mL
- fold change (FC) [7]: 2
- Activity [8]: Active
- inhibition [9]: Dose-Dependent Effect
- Tm [10]: 51.4 °C
- Activity [11]: < 10%
- inhibition [12]: Dose-Dependent Effect
- Activity [13]: inactive
- fold change (FC) [14]: 2
- fold change (FC) [15]: 2
- Activity [16]: Active
